Experiment: HPLC assay and impurity levels, autoclaved and non-autoclaved samples (Example 7)
Format: physicochemical
Conditions: standard, no condition given
Protocol: EXAMPLE 7. Characterization of Unbuffered Formulation C Solutions with Nitrogen […] and with the Inclusion of an Antioxidant with or without a Chelating Agent. Development studies were conducted using Formulation C, Example C, and its corresponding placebo formulation. The table below details the composition of Formulation C active formulation and corresponding placebo. The solutions above were prepared by first dissolving the stabilizers in the vehicle (60 mM Tartaric acid) which was pre-prepared in nitrogen sparged water. Once dissolved, the CEM-101 API was then added slowly and allowed to mix until a complete solution was achieved. Formulations prepared were then filled into vials, crimped with an aluminium cap containing a PTFE septum and then autoclaved. Each vial was nitrogen purged prior to crimping. HPLC analyses were performed on both autoclaved and non-autoclaved samples. Refer to results in the table below for summary data on assay and impurities.

CC[C@H]1OC(=O)[C@@](C)(F)C(=O)[C@H](C)[C@@H](O[C@@H]2O[C@H](C)C[C@H](N(C)C)[C@H]2O)[C@@](C)(OC)C[C@@H](C)C(=O)[C@H](C)[C@H]2N(CCCCn3cc(-c4cccc(N)c4)nn3)C(=O)O[C@]12C [STD 0.5 mg/mL]
Total Impurities: 1.867

— patent US20200276150A1, “PARENTERAL FORMULATIONS OF MACROLIDE ANTIBIOTICS” (Tetard, Inc., priority 2010, published 2020)
